{"source": "patent US12391685B2", "about": "“Inhibitors of RNA-guided nuclease target binding and uses thereof” (THE BROAD INSTITUTE, INC., priority 2018, dated 2025)", "data": [{"biological_target": "SpCas9 (Streptococcus pyogenes serotype M1, UniProt Q99ZW2)", "sequence (Q99ZW2 whole entry)": "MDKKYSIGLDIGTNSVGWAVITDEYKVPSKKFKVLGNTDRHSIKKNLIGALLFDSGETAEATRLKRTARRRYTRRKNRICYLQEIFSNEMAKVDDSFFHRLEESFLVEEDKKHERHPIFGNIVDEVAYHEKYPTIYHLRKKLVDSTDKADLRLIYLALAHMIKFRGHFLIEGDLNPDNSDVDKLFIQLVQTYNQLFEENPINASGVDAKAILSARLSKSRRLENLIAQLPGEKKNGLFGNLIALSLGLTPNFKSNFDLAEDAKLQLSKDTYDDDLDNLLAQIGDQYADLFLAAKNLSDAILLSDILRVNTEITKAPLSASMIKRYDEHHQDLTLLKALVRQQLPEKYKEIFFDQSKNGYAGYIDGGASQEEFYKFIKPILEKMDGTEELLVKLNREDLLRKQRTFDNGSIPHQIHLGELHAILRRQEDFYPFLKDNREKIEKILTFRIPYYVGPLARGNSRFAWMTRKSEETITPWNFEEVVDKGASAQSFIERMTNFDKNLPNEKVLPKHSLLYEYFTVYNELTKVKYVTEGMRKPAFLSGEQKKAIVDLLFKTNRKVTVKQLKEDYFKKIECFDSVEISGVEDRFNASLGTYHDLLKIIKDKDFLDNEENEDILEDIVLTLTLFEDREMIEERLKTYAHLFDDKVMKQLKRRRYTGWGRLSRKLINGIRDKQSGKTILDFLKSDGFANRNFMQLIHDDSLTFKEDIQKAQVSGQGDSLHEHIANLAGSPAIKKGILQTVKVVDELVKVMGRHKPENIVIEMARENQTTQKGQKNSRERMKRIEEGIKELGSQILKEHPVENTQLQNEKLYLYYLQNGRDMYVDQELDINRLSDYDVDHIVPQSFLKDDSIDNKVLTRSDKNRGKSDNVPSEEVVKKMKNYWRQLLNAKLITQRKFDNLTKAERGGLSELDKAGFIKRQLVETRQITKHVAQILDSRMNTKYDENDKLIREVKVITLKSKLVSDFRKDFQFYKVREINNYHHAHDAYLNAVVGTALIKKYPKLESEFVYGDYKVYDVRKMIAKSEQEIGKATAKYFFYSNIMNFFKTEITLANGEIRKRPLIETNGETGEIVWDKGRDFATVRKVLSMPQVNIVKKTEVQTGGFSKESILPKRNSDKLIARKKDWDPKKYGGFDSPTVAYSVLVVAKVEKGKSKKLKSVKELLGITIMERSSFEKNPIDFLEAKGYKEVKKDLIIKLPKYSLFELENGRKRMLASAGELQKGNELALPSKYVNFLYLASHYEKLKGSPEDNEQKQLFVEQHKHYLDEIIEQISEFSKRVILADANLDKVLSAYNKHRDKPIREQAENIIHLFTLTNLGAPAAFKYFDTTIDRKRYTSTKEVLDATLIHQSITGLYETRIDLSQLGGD", "assay": "eGFP-disruption assay in U2OS.eGFP.PEST cells", "assay_type": "cell-based, S. pyogenes", "set-up": "host or cells: U2OS.eGFP.PEST", "settings": "screen of structural analogs of BRD7087; 15 μM compound, 24 h, U2OS.eGFP.PEST cells", "protocol": "SpCas9 nuclease activity in eGFP-disruption assay. Approximately 200,000 U2OS.eGFP-PEST cells were nucleofected following two different methods either by nucleofecting plasmids or RNP using the SE Cell Line 4D-Nucleofector™ X Kit (Lonza) according to the manufacturer's protocol. In the plasmid nucleofection method, cells were nucleofected either with 440 ng of SpCas9 (Addgene Plasmid #43861) or 400 ng of SpCas9 along with 40 ng of sgRNA (pFYF1320 eGFP Site #1, Addgene Plasmid #47511). Cells nucleofected only with SpCas9-expressing plasmid were used as the transfection control. In the RNP nucleofection method, either […] SpCas9 or 20 pmol preformed SpCas9:gRNA (eGFP Site #1) complex were nucleofected. Approximately 20,000 transfected cells/well were plated in 4 replicates in a 96-well plate (Corning® 3904). Cells were incubated with the indicated amount of compound or DMSO for 24 h post transfection. A DMSO solution of compound (20 mM) was resuspended in the 10% FBS containing growth media and thoroughly mixed before adding to the cells. Cells were then fixed using 4% paraformaldehyde and imaged with the HCS NuclearMask™ Blue Stain (Life Technologies) as the nuclear counter-staining agent. Imaging was performed with an ImageXpress Micro automated microscope (Molecular Devices) at 10× magnification under three excitation channels (blue, green and red) acquiring nine sites per well. Images were analyzed using MetaXpress software and data were plotted using GraphPad Prism 6.\nThe Z′-value was calculated using the equation (1), where σ1 and σ2 are the standard deviations of DMSO control and SpCas9:gRNA control respectively. μ1 and μ2 are the mean % GFP^− cell population for DMSO control and SpCas9:gRNA control, respectively.", "values": [{"smiles": "O=C(c1ccc(F)cc1)N1CC[C@@H]2[C@H]1c1cc(C#Cc3ccccc3F)ccc1N[C@@H]2CO", "note": "[BRD-K79906422]", "Average Inhibition activity": 51.1, "Inhibition activity Rep 1": 51.3, "Inhibition activity Rep 2": 50.9}, {"smiles": "COc1cccc(S(=O)(=O)N2CC[C@@H]3[C@H](CO)N(C)c4ccc(C#Cc5cccnc5)cc4[C@@H]32)c1", "note": "[BRD-K29966477]", "Average Inhibition activity": 57.5, "Inhibition activity Rep 1": 50.1, "Inhibition activity Rep 2": 64.8}, {"smiles": "COc1ccccc1NC(=O)N1CC[C@@H]2[C@H]1c1cc(C#Cc3cccc(F)c3)ccc1N(C)[C@@H]2CO", "note": "[BRD-K77165899]", "Average Inhibition activity": 53.5, "Inhibition activity Rep 1": 47.0, "Inhibition activity Rep 2": 59.9}, {"smiles": "C/C=C/c1ccc2c(c1)[C@H]1[C@H](CCN1C(=O)c1ccc(F)cc1)[C@H](CO)N2", "note": "[BRD-K81261525]", "Average Inhibition activity": 74.3, "Inhibition activity Rep 1": 71.3, "Inhibition activity Rep 2": 77.4}, {"smiles": "CCCC#Cc1ccc2c(c1)[C@@H]1[C@@H](CCN1S(=O)(=O)c1ccccc1OC)[C@@H](CO)N2", "note": "[BRD-K43330291]", "Average Inhibition activity": 59.3, "Inhibition activity Rep 1": 68.2, "Inhibition activity Rep 2": 50.4}, {"smiles": "O=C(C1CC1)N1CC[C@@H]2[C@H](CO)Nc3ccc(Br)cc3[C@@H]21", "note": "[BRD-K31090697]", "Average Inhibition activity": 48.0, "Inhibition activity Rep 1": 46.0, "Inhibition activity Rep 2": 49.9}, {"smiles": "CCC(=O)N1CC[C@@H]2[C@H]1c1cc(C#Cc3ccc(F)cc3)ccc1N[C@@H]2CO", "note": "[BRD-K49114971]", "Average Inhibition activity": 56.1, "Inhibition activity Rep 1": 49.0, "Inhibition activity Rep 2": 63.1}, {"smiles": "COc1ccccc1C#Cc1ccc2c(c1)[C@H]1[C@H](CCN1C(=O)c1cccc(F)c1)[C@H](CO)N2", "note": "[BRD-K83261893]", "Average Inhibition activity": 45.7, "Inhibition activity Rep 1": 47.1, "Inhibition activity Rep 2": 44.3}, {"smiles": "CN1c2ccc(C#Cc3ccccc3)cc2[C@@H]2[C@@H](CCN2S(=O)(=O)c2cn(C)cn2)[C@H]1CO", "note": "[BRD-A34097118]", "Average Inhibition activity": 60.1, "Inhibition activity Rep 1": 50.1, "Inhibition activity Rep 2": 70.1}, {"smiles": "O=C(C1CCCCC1)N1CC[C@@H]2[C@H](CO)Nc3ccc(C#Cc4ccc(F)cc4)cc3[C@@H]21", "note": "[BRD-K72901141]", "Average Inhibition activity": 49.5, "Inhibition activity Rep 1": 53.2, "Inhibition activity Rep 2": 45.9}, {"smiles": "CN1c2ccc(C#Cc3cccnc3)cc2[C@H]2[C@H](CCN2C(=O)C2CCCCC2)[C@H]1CO", "note": "[BRD-K11970601]", "Average Inhibition activity": 54.5, "Inhibition activity Rep 1": 59.0, "Inhibition activity Rep 2": 50.0}, {"smiles": "CN1c2ccc(C#Cc3cccnc3)cc2[C@@H]2[C@@H](CCN2S(=O)(=O)c2ccccc2F)[C@H]1CO", "note": "[BRD-K39647256]", "Average Inhibition activity": 54.9, "Inhibition activity Rep 1": 51.3, "Inhibition activity Rep 2": 58.4}, {"smiles": "Cc1ccccc1S(=O)(=O)N1CC[C@@H]2[C@H](CO)N(C)c3ccc(C#Cc4ccc(F)cc4)cc3[C@@H]21", "note": "[BRD-K11385710]", "Average Inhibition activity": 51.1, "Inhibition activity Rep 1": 55.7, "Inhibition activity Rep 2": 46.5}, {"smiles": "CN1c2ccc(C#Cc3cccnc3)cc2[C@@H]2[C@@H](CCN2C(=O)c2cccc(F)c2)[C@@H]1CO", "note": "[BRD-K18296007]", "Average Inhibition activity": 64.7, "Inhibition activity Rep 1": 69.6, "Inhibition activity Rep 2": 59.7}, {"smiles": "CN1c2ccc(C#Cc3cccnc3)cc2[C@@H]2[C@@H](CCN2C(=O)c2cccc(F)c2)[C@H]1CO", "note": "[BRD-K46446619]", "Average Inhibition activity": 64.6, "Inhibition activity Rep 1": 63.4, "Inhibition activity Rep 2": 65.9}, {"smiles": "CN1c2ccc(-c3ccc(F)cc3)cc2[C@H]2[C@H](CCN2S(=O)(=O)c2cccc(F)c2)[C@@H]1CO", "note": "[BRD-K98925777]", "Average Inhibition activity": 49.4, "Inhibition activity Rep 1": 53.6, "Inhibition activity Rep 2": 45.2}, {"smiles": "OC[C@@H]1Nc2ccc(C#Cc3cccnc3)cc2[C@H]2NCC[C@@H]12", "note": "[BRD-K71200053]", "Average Inhibition activity": 67.6, "Inhibition activity Rep 1": 54.6, "Inhibition activity Rep 2": 80.6}, {"smiles": "COc1cccc(-c2ccc3c(c2)[C@@H]2[C@@H](CCN2C(=O)c2cnccn2)[C@@H](CO)N3)c1", "note": "[BRD-K11943259]", "Average Inhibition activity": 58.8, "Inhibition activity Rep 1": 53.0, "Inhibition activity Rep 2": 64.6}, {"smiles": "COc1cccc(S(=O)(=O)N2CC[C@@H]3[C@H]2c2cc(C#Cc4cccnc4)ccc2N(C)[C@H]3CO)c1", "note": "[BRD-K04388421]", "Average Inhibition activity": 51.2, "Inhibition activity Rep 1": 49.1, "Inhibition activity Rep 2": 53.3}, {"smiles": "O=S(=O)(c1cccc(F)c1)N1CC[C@@H]2[C@H](CO)Nc3ccc(C#Cc4ccccc4F)cc3[C@@H]21", "note": "[BRD-K12807496]", "Average Inhibition activity": 60.8, "Inhibition activity Rep 1": 50.9, "Inhibition activity Rep 2": 70.7}, {"smiles": "COc1ccccc1C#Cc1ccc2c(c1)[C@H]1[C@H](CCN1C(=O)CN1CCOCC1)[C@H](CO)N2", "note": "[BRD-K26627503]", "Average Inhibition activity": 56.9, "Inhibition activity Rep 1": 47.5, "Inhibition activity Rep 2": 66.3}, {"smiles": "OC[C@@H]1Nc2ccc(-c3ccccc3)cc2[C@@H]2[C@H]1CCN2Cc1ccc(F)cc1", "note": "[BRD-K90247032]", "Average Inhibition activity": 49.3, "Inhibition activity Rep 1": 47.6, "Inhibition activity Rep 2": 51.1}, {"smiles": "O=C(Cc1ccccc1)N1CC[C@@H]2[C@H](CO)Nc3ccc(-c4ccc(F)cc4)cc3[C@@H]21", "note": "[BRD-K05104277]", "Average Inhibition activity": 65.0, "Inhibition activity Rep 1": 71.6, "Inhibition activity Rep 2": 58.4}, {"smiles": "COc1ccc(S(=O)(=O)N2CC[C@H]3[C@@H](CO)N(C)c4ccc(C#Cc5ccccc5OC)cc4[C@H]32)cc1", "note": "[BRD-K83448282]", "Average Inhibition activity": 45.7, "Inhibition activity Rep 1": 46.7, "Inhibition activity Rep 2": 44.6}, {"smiles": "O=C(c1cccc(F)c1)N1CC[C@@H]2[C@H](CO)Nc3ccc(-c4ccccc4)cc3[C@@H]21", "note": "[BRD-K94204229]", "Average Inhibition activity": 57.0, "Inhibition activity Rep 1": 47.5, "Inhibition activity Rep 2": 66.6}, {"smiles": "O=S(=O)(c1ccc(F)cc1)N1CC[C@@H]2[C@H](CO)Nc3ccc(C#CC4CC4)cc3[C@@H]21", "note": "[BRD-K47320872]", "Average Inhibition activity": 45.1, "Inhibition activity Rep 1": 44.5, "Inhibition activity Rep 2": 45.7}, {"smiles": "CCC(=O)N1CC[C@H]2[C@@H]1c1cc(C#Cc3ccccc3OC)ccc1N(C)[C@H]2CO", "note": "[BRD-K31513357]", "Average Inhibition activity": 66.7, "Inhibition activity Rep 1": 59.8, "Inhibition activity Rep 2": 73.6}, {"smiles": "COc1ccc(C#Cc2ccc3c(c2)[C@@H]2[C@@H](CCN2Cc2nccs2)[C@@H](CO)N3)cc1", "note": "[BRD-K70808105]", "Average Inhibition activity": 51.5, "Inhibition activity Rep 1": 47.4, "Inhibition activity Rep 2": 55.6}, {"smiles": "COc1cccc(S(=O)(=O)N2CC[C@H]3[C@@H](CO)N(C)c4ccc(C#Cc5cccnc5)cc4[C@H]32)c1", "note": "[BRD-K92333822]", "Average Inhibition activity": 55.1, "Inhibition activity Rep 1": 53.1, "Inhibition activity Rep 2": 57.1}, {"smiles": "N#Cc1ccc(-c2ccc3c(c2)[C@H]2[C@H](CCN2C(=O)Cc2ccccc2)[C@@H](CO)N3)cc1", "note": "[BRD-K63155325]", "Average Inhibition activity": 57.6, "Inhibition activity Rep 1": 63.0, "Inhibition activity Rep 2": 52.1}, {"smiles": "O=S(=O)(c1cccc(F)c1)N1CC[C@@H]2[C@H]1c1cc(C#Cc3ccccc3F)ccc1N[C@@H]2CO", "note": "[BRD-K14474387]", "Average Inhibition activity": 61.3, "Inhibition activity Rep 1": 56.1, "Inhibition activity Rep 2": 66.4}, {"smiles": "O=C(C1CCCCC1)N1CC[C@@H]2[C@H](CO)Nc3ccc(Br)cc3[C@@H]21", "note": "[BRD-K60987574]", "Average Inhibition activity": 60.9, "Inhibition activity Rep 1": 59.5, "Inhibition activity Rep 2": 62.2}]}]}
